1 molecule from patent US20230414571A1, “APPLICATION OF SMALL-MOLECULE COMPOUND IN PREPARATION OF ANTITUMOR DRUG” (SOOCHOW UNIVERSITY, priority 2021, published 2023) can be followed below.

The subject of series [1] is cranial nerve glioma cell U87. In words: Antiproliferative activity against cranial nerve glioma cell U87. It counts as cell-based. Conditions: Homo sapiens, U-87 MG; U87 cells; read-out: concentration at which half of the tumor cells are killed. From the text:
FIG. 14 is an antiproliferative activity test diagram of compound 8, compound 11, compound 13, and compound 21 against a cranial nerve glioma cell U87.

Series [2] in a line: Plasma pharmacokinetics in mice determined by GLMSD. It counts as in vivo, mouse. The settings on record: mouse, in vivo, 40 mg/kg. The procedure:
It can be seen from FIG. 8-1 that the GLMSD platform can specifically acquire the pharmacokinetic data of small-molecule compound 27. Competitive advantages of GLMSD in pharmacokinetic research: (1) a complete drug blood concentration curve of each individual may be tracked; and (2) the total number of mice used in the test is reduced. Since the blood sample consumption of the GLMSD method is low (10 μL of blood per time point), one mouse can be used for completing the entire pharmacokinetic curve (blood sampling at 11 time points within 24 hours, and the minimum interval being 0.25 hour) of a drug.
Based on the advantage that the complete PK curve can be tested by means of the GLMSD, we observe that 3 (#2, #3 and #4) in 8 mice have the characteristic re-absorption peak of this small-molecule inhibitor at the time point of 8 h, and such a characteristic re-absorption peak hardly exists in other 5 mice. This significant phenomenon is related to drug uptake differences between individuals, prompting that compound 27 may re-enter blood circulation by means of a secondary absorption pathway. In the mode of continuous multiple administration (c in FIG. 8-2), pharmacokinetic data of compound 27 (40 mg/kg) was collected from each mouse every day (1, 3, 6, and 8 hours after last administration) for 5 days. For a single dose (a in FIG. 8-2) or a continuous multi-dose (d in FIG. 8-2) administration manner, a limitation of a conventional LC-MS technology lies in obtaining a single data point of pharmacokinetics of a drug by sacrificing one mouse, whereas GLMSD can break through this limitation by providing a complete pharmacokinetic curve based on a single mouse.

Another series relates to U87MG tumor. In words: U87MG tumor growth and survival in mice after various treatments. It counts as in vivo, nude mouse. From the text:
In all different experimental groups (a and b in FIG. 10), the overall survival (OS) of mice treated with TMZ and compound 27 is the best. […] However, mouse death caused by glioma is reduced only 20 days […] treatment. After this period of time, the survival rates of the in-situ U87 heterogeneous tumor of the two single drug groups decreases rapidly due to malignant glioma.

The subject of another series is U87 glioma cells. In words: Targeted metabonomics analysis of U87 cells. It counts as cell-based. Here is the method:
1×10^7 cells (a sample cell number) were collected, and the cell supernatant was removed by means of centrifugation (1000×g, 1 minute) after quenching with a newly prepared quencher. The cells were resuspended with 100 μL of ultrapure water and mixed well. After 800 μL of cold methanol:acetonitrile (1:1, v/v) was added, the uniformly mixed cell samples were subjected to ultrasonic treatment in an ice bath for 30 minutes. The mixture was stored at −20° C. for 1 h to precipitate the protein. After centrifugation at 4° C. (14000×g, 20 minutes), the supernatant was collected, lyophilized, stored at −80° C., and then analyzed by means of […].
The lyophilized samples were resuspended in a solution (acetonitrile:water, 1:1, v/v, 100 μL) and then centrifuged at 4° C. (14000×g, 10 minutes). The supernatant (100 μL) was collected and diluted with an acetonitrile solution (100 μL), and a […] sample was loaded at 4° C. by using an Agilent 1290 Infinity liquid chromatography (LC) system (Agilent Technologies, Beijing, China) and a 5500 QTRAP mass spectrometer (Toronto of Canada, AB Sciex). At ACQUITY-UPLC-BEH column (1.7 μm, 2.1 mm×150 mm, Waters Technology (Shanghai) Co., Ltd.), chromatographic separation was performed at a flow rate of 300 μL/min, where solvent A (mobile phase) was a 15 mM ammonium acetate aqueous solution, and solvent B was acetonitrile. Chromatographic conditions of gradient elution were reduced from 90% B to 40% B, and were increased sharply from 40% B to 90% B after 18 minutes, a volume ratio of 90% B was kept for 4.9 minutes after 0.1 minute, and the duration of the whole process was 23 minutes. An equal volume of compounds was extracted from 32 actual samples so as to monitor the stability of the system, thereby being used for processing a quality control (QC) sample and put into a real sample. Mass spectrum experiments were performed in a negative ion and multi-reaction monitoring mode, and specific parameters were as follows: a source temperature of 450° C., an atomizer gas (GS1): 45, an auxiliary gas (GS2): 45, a curtain gas (CUR): 30, and an ion space voltage floating (ISVF): −4500 V.
Standard GC-MS data was processed by using analysis software (AB Sciex, Toronto, Canada), which included converting the original mass spectrum data to data containing m/z, measuring the corresponding ion intensity and retention time, and subsequent statistical analysis. Peak testing and calibration of all the samples were compared to their chemical standards (Sigma-Aldrich). […]
Statistical significance was tested by using t. *: P<0.05, **: P<0.01, and ***: P<0.005. […] The hexokinase (HK2 in cancer cells), which is the first one and serves as a rate-limiting enzyme in a glycolysis pathway was evaluated. […]

For the molecule `CCOc1ccc(C(=O)NCCCN(C)CCCN(C)Cc2ccccc2)cc1Br` [compound 27], in series [1], the IC50 came to 11.3 µM. In addition, in series [2], the exposure AUC(0-t) came to 64400 ng·h/mL, the Cmax stood at 14600 ng/mL, the time of peak concentration (Tmax) was determined as 2 h and the half-life is 4.12 h. Besides, in the series on U87MG tumor (U87MG subcutaneous tumor, nude mouse), the “growth of solid tumors” value is on record as “can inhibit growth of solid tumors”. In addition, the “glioma growth / survival rate, bioluminescence tracking” value in the series on U87MG tumor (in situ U87-luciferase mice, compared with PBS) is listed as “delays the growth of glioma”. In the series with U87MG tumor (mice with U87MG tumor, n=6 per group), this molecule gave a median survival time of 30 days. Further, in the series with U87 glioma cells (U87 cells after treatment), the “glyceraldehyde-3-phosphate accumulation relative to control group processed by PBS” value is recorded as “approximately 3.5 times” and the “increase in concentration of thiamine pyrophosphate (TPP)” value is ~2.5 times. Further, the glyceride-3-phosphate change result in the series on U87 glioma cells (U87 cells after treatment, P<0.005) is on record as “significantly reduced by nearly two orders of magnitude”. In addition, the “concentration of glucose-6-phosphate” value with U87 glioma cells (U87 cells, vs control group processed by PBS) is listed as “lower than that of the control group”.
